In patent US11274097B2, “2-(het)aryl-substituted condensed bicyclic heterocycle derivatives as pest control agents” (BAYER CROPSCIENCE AKTIENGESELLSCHAFT, priority 2014, dated 2022):
Like-named read-outs stand apart in the source and are kept apart here.

How the values were obtained:
[1] = log P by HPLC on a reversed-phase column (C 18), EEC Directive 79/831 Annex V.A8; type: physicochemical; conditions: for LOGP_NEUTRAL: pH 7.8, 0.001 molar aqueous ammonium hydrogencarbonate/acetonitrile; for chromatographic logP: reversed-phase HPLC column (C 18)
Experimental: The log P values are measured according to EEC Directive 79/831 Annex V.A8 by HPLC (high-performance liquid chromatography) on a reversed-phase column (C 18). Temperature: 55° C. The LC-MS determination in the acidic range is effected at pH 2.7 using 0.1% aqueous formic acid and acetonitrile (contains 0.1% formic acid) as eluents, linear gradient from 10% acetonitrile to 95% acetonitrile. Called log P (HCOOH) in the table. LC-MS determination in the neutral range is effected at pH 7.8 with 0.001 molar aqueous ammonium hydrogencarbonate solution and acetonitrile as eluents; linear gradient from 10% acetonitrile to 95% acetonitrile. Called log P (neutral) in the table. Calibration is effected with unbranched alkan-2-ones (having 3 to 16 carbon atoms) with known log P values (log P values determined on the basis of the retention times by linear interpolation between two successive alkanone s).

[2] = system: Phaedon cochleariae; experiment: Phaedon cochleariae spray test (PHAECO); type: in vivo; conditions: application rate 500 g/ha; larvae; after 7 days
Experimental: Phaedon cochleariae—Spray Test (PHAECO)
Solvent: 78.0 parts by weight of acetone • • 1.5 parts by weight of dimethylformamide
Emulsifier: alkylaryl polyglycol ether
(§1) To produce an appropriate active ingredient formulation, 1 part by weight of active ingredient is dissolved using the stated parts by weight of solvent and made up with water containing an emulsifier concentration of 1000 ppm until the desired concentration is attained. To produce further test concentrations, the preparation is diluted with emulsifier-containing water.
Discs of Chinese cabbage leaves (Brassica pekinensis) are sprayed with an active ingredient formulation of the desired concentration and, after drying, populated with larvae of the mustard beetle (Phaedon cochleariae).
After 7 days, the efficacy in % is determined. 100% means that all the beetle larvae have been killed; 0% means that no beetle larvae have been killed.

[3] = system: Myzus persicae; experiment: Myzus persicae spray test (MYZUPE), Chinese cabbage leaf discs; type: in vivo; conditions: application rate 500 g/ha, after 6 days
Experimental: Myzus persicae—Spray Test (MYZUPE)
Solvent: 78 parts by weight of acetone • • 1.5 parts by weight of dimethylformamide
Emulsifier: alkylaryl poly glycol ether
as §1
Discs of Chinese cabbage leaves (Brassica pekinensis) infested by all stages of the green peach aphid (Myzus persicae) are sprayed with an active ingredient formulation of the desired concentration.
After 6 days, the efficacy in % is determined. 100% means that all the aphids have been killed; 0% means that none of the aphids have been killed.

[4] = acidic range, pH 2.7, 0.1% aqueous formic acid/acetonitrile, 55° C.
[5] = neutral range, pH 7.8, read-out: log P (neutral)
[6] = acidic range, pH 2.7, 0.1% aqueous formic acid/acetonitrile, 55° C., read-out: LOGP_HCOOH

LOGP_HCOOH [1, 4]	LOGP_NEUTRAL ([1]; neutral range, 55° C.)	chromatographic logP [1, 5]	chromatographic logP [1, 6]	Structure (SMILES)	efficacy [2]	efficacy [3]
1.87	1.84			Cn1c(-c2ccccc2S(=O)(=O)C2COC2)nc2cc(C(F)(F)F)ncc21 [Example I-27]		
2.41	2.31			Cn1c(-c2ncc(C(F)(F)F)cc2SCCO)nc2cc(C(F)(F)F)ncc21 [Example I-59]		
2.75	2.74			CSc1cc(Cl)ccc1-c1nc2nc(C(F)(F)F)ncc2n1C [Example I-6]		
2.25	2.20			COc1ccc(S(C)(=O)=O)c(-c2nc3cc(C(F)(F)F)ncc3n2C)n1 [Example I-73]	100%	
1.61	1.56			CCS(=O)(=O)c1cc(C(N)=O)cnc1-c1nc2cc(C(F)(F)F)ncc2n1C [Example I-56]		90%
4.38	4.41			CSc1cc(Cl)ccc1-c1nc2cc(C(F)(F)F)ncc2o1 [Example I-34]		
3.26	3.21			CC(C)S(=O)(=O)c1cc(C(F)(F)F)cnc1-c1nc2cc(C(F)(F)F)ncc2n1C [Example I-16]		
3.54	3.46			CC(C)[S+]([O-])c1cc(C(F)(F)F)cnc1-c1nc2cc(C(F)(F)F)ncc2n1C (stereo not drawn) [Example I-8]		
3.86	3.77			CSc1cc(Cl)ccc1-c1nc2nc(C(F)(F)F)ncc2o1 [Example I-1]		
3.04	2.93			Cn1c(-c2ncccc2SC(F)(F)F)nc2cc(C(F)(F)F)ncc21 [Example I-29]	100%	
2.75	2.70			COc1ccc(SC)c(-c2nc3cc(C(F)(F)F)ncc3n2C)n1 [Example I-67]		
2.32	2.26			CCS(=O)(=O)c1cc(C#N)cnc1-c1nc2cc(C(F)(F)F)ncc2n1C [Example I-72]		
3.12	3.01			CCSc1cc(C(F)(F)F)cnc1-c1nc2cc(Cl)ncc2n1C [Example I-55]	100%	

The next lines start with the compound.

Structure (SMILES)	LOGP_HCOOH [1, 4]	LOGP_NEUTRAL ([1]; neutral range, 55° C.)	chromatographic logP [1, 5]	chromatographic logP [1, 6]	efficacy [2]	efficacy [3]
Cn1c(-c2ccc(F)cc2S(C)(=O)=O)nc2cc(C(F)(F)F)ncc21 [Example I-20]	2.08	2.05				
CCSc1cc(C(F)(F)F)cnc1-c1nc2cc(-n3cc(C(F)(F)F)cn3)ncc2n1C [Example I-65]	4.37	4.31				
CCSc1ccccc1-c1nc2cc(C(F)(F)F)ncc2o1 [Example I-35, 2-[2-(Ethylsulphanyl)phenyl]-6-(trifluoromethyl)[1,3]oxazolo[5,4-c]pyridine]	4.03	4.07	4.07			
FC(F)(F)c1cc2nc(-c3ccccc3SC3COC3)oc2cn1 [Example I-40]	3.15	3.10				
Cn1c(-c2ncc(C(F)(F)F)cc2S(C)(=O)=O)nc2cc(C(F)(F)F)ncc21 [Example I-36, 3-Methyl-2-[3-(methylsulphonyl)-5-(trifluoromethyl)pyridin-2-yl]-6-(trifluoromethyl)-3H-imidazo[4,5-c]pyridine]	2.67	2.64	2.64		100%	
CCCS(=O)(=O)c1ccc(OC)nc1-c1nc2cc(C(F)(F)F)ncc2n1C [Example I-71]	2.93					
CCS(=O)(=O)c1cccnc1-c1nc2cc(C(F)(F)F)ncc2n1C [Example I-15]	1.95	1.92				
CCSc1cc(C(F)(F)F)cnc1-c1nc2cc(-n3cnc(C(F)(F)F)c3)ncc2n1C [Example I-74, 2-[3-ethylsulphanyl-5-(trifluoromethyl)-2-pyridyl]-3-methyl-6-[4-(trifluoromethyl)-imidazol-1-yl]imidazo[4,5-c]pyridine]		3.36	3.36	3.49		
CCSc1cc(C(N)=O)cnc1-c1nc2cc(C(F)(F)F)ncc2n1C [Example I-60]	1.77	1.76				
CCS(=O)(=O)c1cc(C(F)(F)F)cnc1-c1nc2cc(-n3ccc(C(F)(F)F)n3)ncc2n1C [Example I-77]	3.90	3.81				
CCCS(=O)(=O)c1cc(C(F)(F)F)cnc1-c1nc2cc(C(F)(F)F)ncc2n1C [Example I-32]	3.37	3.32				
CCS(=O)(=O)c1c(Cl)cccc1-c1nc2cc(C(F)(F)F)ncc2n1C [Example I-62]	2.17	2.15				
CCSc1cc(C(F)(F)F)cnc1-c1nc2cc(-n3ccc(C(F)(F)F)n3)ncc2n1C [Example I-69]	4.37	4.32				
CNc1cnc(C(F)(F)F)cc1NC(=O)c1ncc(C(F)(F)F)cc1Cl [VIII-01, 3-chloro-N-[5-(methylamino)-2-(trifluoromethyl)pyridin-4-yl]-5-(trifluoromethyl)pyridine-2-carboxamide]			3.09			
CC(C)Sc1cc(C(F)(F)F)cnc1-c1nc2cc(C(F)(F)F)ncc2n1C [Example I-41]	3.80	3.73			100%	
CCCSc1cc(C(F)(F)F)cnc1-c1nc2cc(C(F)(F)F)ncc2n1C [Example I-31]	3.94	3.86			100%	

Structure (SMILES)	LOGP_HCOOH [1, 4]	LOGP_NEUTRAL ([1]; neutral range, 55° C.)	chromatographic logP [1, 5]	chromatographic logP [1, 6]	efficacy [2]	efficacy [3]
CSc1cc(C(F)(F)F)ccc1-c1nc2cc(C(F)(F)F)ncc2n1C [Example I-5]	3.30	3.26			100%	
CCS(=O)(=O)c1cc(C(F)(F)F)cnc1-c1nc2cc(-n3cc(C(F)(F)F)cn3)ncc2n1C [Example I-76]	3.84	3.73				
CCCSc1ccc(OC)nc1-c1nc2cc(C(F)(F)F)ncc2n1C [Example I-66]	3.50	3.42				
CCSc1cc(C(F)(F)F)cnc1-c1nc2cc(-c3ccc(C(F)(F)F)cc3)ncc2n1C [Example I-64, 2-[3-ethylsulphanyl-5-(trifluoromethyl)-2-pyridyl]-3-methyl-6-[4-(trifluoromethyl)-phenyl]imidazo[4,5-c]pyridine]	3.93	3.95	3.95			
CCS(=O)(=O)c1cc(C(F)(F)F)cnc1-c1nc2cc(-n3cnc(C(F)(F)F)c3)ncc2n1C [Example I-75]	2.94	2.84				
CCS(=O)(=O)CCS(=O)(=O)c1cc(C(F)(F)F)cnc1-c1nc2cc(C(F)(F)F)ncc2n1C [Example I-7]	2.72	2.67				
CCSc1ccccc1C(=O)Nc1cc(C(F)(F)F)ncc1O [VIII-02, 2-(ethylsulphanyl)-N-[5-hydroxy-2-(trifluoromethyl)pyridin-4-yl]benzamide]			1.59			
Cn1c(-c2ncc(C(F)(F)F)cc2S(=O)(=O)CCF)nc2cc(C(F)(F)F)ncc21 [Example I-57]	2.89	2.82				
CCSc1ccccc1-c1nc2nc(C(F)(F)F)ncc2o1 [Example I-9]	3.66	3.64				
Cn1c(-c2ccc(C(F)(F)F)cc2[S+](C)[O-])nc2cc(C(F)(F)F)ncc21 (stereo not drawn) [Example I-30]	2.41	2.36			83%	
Cn1c(-c2ncc(C(F)(F)F)cc2Cl)nc2cc(C(F)(F)F)ncc21 [IX-01, 2-[3-chloro-5-(trifluoromethyl)pyridin-2-yl]-3-methyl-6-(trifluoromethyl)-3H-imidazo[4,5-c]pyridine]			2.96			
CC[S+]([O-])c1cccnc1-c1nc2cc(C(F)(F)F)ncc2n1C (stereo not drawn) [Example I-33]	2.12	2.11				
CSc1cc(C(F)(F)F)cnc1-c1nc2cc(C(F)(F)F)ncc2n1C [Example I-3, 3-methyl-2-[3-(methylsulphanyl)-5-(trifluoromethyl)pyridin-2-yl]-6-(trifluoro-methyl)-3H-imidazo[4,5-c]pyridine]		3.16	3.16	3.22	100%	
Cn1c(-c2ncc(C(F)(F)F)cc2S(=O)(=O)CCO)nc2cc(C(F)(F)F)ncc21 [Example I-58]		2.19				
CSc1cc(Cl)ccc1-c1nc2cc(C(F)(F)F)ncc2n1C [Example I-25]	3.08	2.97			100%	
